Assay results as given in the NIST ThermoML archive (doi:10.1016/j.fluid.2017.06.024).
± gives the expanded uncertainty stated by the source.

Conditions: Liquid; for speed of sound: Frequency=3 MHz, Pulse-echo method; for mass density: Vibrating tube method

CC(C)OC(C)C [diisopropyl ether]
Conditions | mass density, 293.15 K [kg/m3] | mass density, 303.15 K [kg/m3] | mass density, 313.15 K [kg/m3] | mass density, 323.15 K [kg/m3] | mass density, 333.15 K [kg/m3] | speed of sound, 293.15 K [m/s] | speed of sound, 303.15 K [m/s] | speed of sound, 313.15 K [m/s] | speed of sound, 323.15 K [m/s] | speed of sound, 333.15 K [m/s]
100 kPa | 723.5 ± 0.6 | 712.9 ± 0.6 | 702.2 ± 0.6 | 691.5 ± 0.6 | 680.6 ± 0.6 | 1019.7 ± 2.4 | 974.32 ± 2.3 | 930.24 ± 2.2 | 887.83 ± 2.1 | 847.29 ± 2
10000 kPa | 734.6 ± 0.6 | 725.2 ± 0.6 | 715.5 ± 0.6 | 706 ± 0.6 | 696.3 ± 0.6 | – | – | – | – | –
20000 kPa | 744.5 ± 0.6 | 735.9 ± 0.6 | 726.9 ± 0.6 | 718 ± 0.6 | 709.3 ± 0.6 | 1161.2 ± 2.5 | 1122.6 ± 2.5 | 1086.8 ± 2.4 | 1051.9 ± 2.3 | 1017.8 ± 2.3
30000 kPa | 753.3 ± 0.7 | 745.3 ± 0.7 | 736.9 ± 0.7 | 728.5 ± 0.7 | 720.5 ± 0.7 | – | – | – | – | –
40000 kPa | 761.3 ± 0.7 | 753.8 ± 0.7 | 745.7 ± 0.7 | 737.8 ± 0.7 | 730.3 ± 0.7 | 1274.5 ± 2.7 | 1240.4 ± 2.7 | 1207.9 ± 2.6 | 1177.1 ± 2.5 | 1146.8 ± 2.5
50000 kPa | 768.6 ± 0.8 | 761.5 ± 0.8 | 753.8 ± 0.8 | 746.2 ± 0.8 | 739.1 ± 0.8 | – | – | – | – | –
60000 kPa | 775.4 ± 0.8 | 768.5 ± 0.8 | 761.1 ± 0.8 | 753.9 ± 0.8 | 747.1 ± 0.9 | 1369.3 ± 2.9 | 1337.6 ± 2.9 | 1308.1 ± 2.8 | 1279 ± 2.7 | 1252.4 ± 2.7
70000 kPa | 781.7 ± 0.9 | 775.1 ± 0.9 | 768.1 ± 0.9 | 761 ± 0.9 | 754.5 ± 0.9 | – | – | – | – | –
80000 kPa | 787.6 ± 0.9 | 781.2 ± 0.9 | 774.3 ± 0.9 | 767.5 ± 0.9 | 761.4 ± 1 | 1454.2 ± 3.1 | 1423.4 ± 3 | 1396.7 ± 3 | 1368.7 ± 2.9 | 1343.2 ± 2.9
90000 kPa | 793.2 ± 0.9 | 787 ± 1 | 780.3 ± 1 | 773.7 ± 1 | 767.8 ± 1 | – | – | – | – | –
100000 kPa | 798.5 ± 1 | 792.4 ± 1 | 786 ± 1 | 779.5 ± 1 | – | 1528.7 ± 3.2 | 1501.9 ± 3.2 | 1475 ± 3.1 | 1448.7 ± 3.1 | –
110000 kPa | 803.5 ± 1 | 797.6 ± 1.1 | 791.5 ± 1.1 | 785 ± 1.1 | – | – | – | – | – | –
120000 kPa | 808.4 ± 1.1 | 802.5 ± 1.1 | 796.4 ± 1.1 | 790.3 ± 1.1 | – | – | – | – | – | –
130000 kPa | 813 ± 1.1 | 807.3 ± 1.1 | 801.4 ± 1.2 | 795.2 ± 1.2 | – | – | – | – | – | –
140000 kPa | 817.4 ± 1.1 | 811.8 ± 1.2 | 805.9 ± 1.2 | 800 ± 1.2 | – | – | – | – | – | –
